Consider 11 substances from patent US6974574B2, “Methods of inducing an HIV specific response using a Vpr-specific epitope” (The General Hospital Corporation, priority 2001, dated 2005).

For one assay, the system named is HIV. The assay is described as follows: Level of CTL immune response elicited by peptide immunogen.
Assay [1] relates to PBMC (CD8+ T cells) of HIV-1 infected individuals. Briefly: IFN-γ Elispot assay with PBMC and synthetic HIV-1 peptides. The format is cell-based, human. As for the experimental part: Peptides were added directly to the wells at a final concentration of 1×10^−5 molar. Cells were added to the wells at 50,000 to 100,000 cells per well. The plates were incubated at 37° C., 5% CO2 overnight (14-16 h) and then processed as described. IFN-γ producing cells were counted by direct visualization and are expressed as spot forming cells (SFC) per 10^6 cells. The number of specific IFN-γ secreting T-cells was calculated by subtracting the negative control value from the established SFC count. […] Responses ≧40 SFC per 10^6 input cells above background were considered positive. The positive control consisted of incubation of 100,000 PBMC with phytohaemagglutinin (PHA). […] Fine mapping of epitopes by Elispot assay was performed, using peptide truncations (e.g., as described in Altfield et al., 2000, J. Virol. 74:8541). 100,000 PBMC per well were incubated with concentrations from 10^−4 M to 10^−11 M of peptide overnight on the Elispot plate. All assays were run in duplicate. The optimal peptide was defined as the peptide that induced 50% maximal specific IFN-γ production of T-cells at the lowest peptide concentration.

A further assay relates to CD8+ T cells. Briefly: Flow cytometric detection of antigen-induced intracellular IFN-γ. Type of assay: cell-based, human. As to conditions: subject AC-06. The procedure:
CD8+ T cells were non-specifically expanded from PBMC over 10 days, using a bi-specific […]. Peptide-specific CD8+ T cell lines were subsequently isolated using a standard IFN-γ catching assay. After expansion 10-20×10^6 CD8+ T cells were incubated on 24-well-plates with 20 μM peptide and 1 ug/ml each of the mAbs anti-CD28 and anti-CD49d (Becton Dickinson) at 37° C., 5% CO2, for 6-8 hour. Cell were subsequently labeled with a bi-specific CD45/IFN-γ catching antibody and incubated for 45 min at 37° C., 5% CO2. After several washes, the IFN-γ producing cells were stained with a second IFN-γ-PE detection antibody and separated by anti-PE mAb labeled with magnetic beads (MACS, Miltenyi Biotech, Hamburg, Germany). The isolated cells were then expanded for 10 days using autologous irradiated feeders.
Intracellular cytokine staining assays were performed using known methods, e.g.,described by Pitcher et al., 1999, Nature Medicine 5:518 or Goulder et al, 2000, J. Exp. Med. 192:1819). […] Cells were then washed and analyzed on a FACSort Flowcytometer (Becton Dickinson Immunocytometry systems, San Jose, Calif.) using peridinin chlorophyl protein (PerCP), allophycocyanin (APC) and fluorescein isothiocyanate (FITC) as fluorescent parameters. […]
For orientation: Flow cytometry measures light scatter and fluorescence of single cells or particles in a stream.

Where “and” joins values, the source holds several entries; their conditions need not be identical. Equal values may be shown once.

Turning to “ALIRILQQL (Human immunodeficiency virus type 1)”, in the assay on HIV, the “level of the immune response elicited, compared with SEQ ID NO:1” value was “at least 1 log”. In addition, the “recognition (individuals with the corresponding HLA class I alleles that responded to the epitope)” value (“recognition” below) in assay [1] was 8/24.

AVRHFPRIW: the “recognition” value in assay [1] is given as 4/6.

In the case of “FPRIWLHGL (Human immunodeficiency virus type 1)”, the “recognition” value in assay [1] is 2/2 and 4/8. Further, the “individuals expressing the HLA allele that targeted the epitope” value in assay [1] (AL9: HLA-A2, FL9: HLA-B7) is on record as 4/8.

For the substance “GPGHKARVL (Human immunodeficiency virus type 1)”, in the assay on CD8+ T cells, the “contribution to total HIV-1-specific CD8 responses” value was 32% and the “percentage of CD8+ T cells specific for the epitope, intracellular IFN-γ” value was determined as 5.6%.

With “HPRVSSEVHI (Human immunodeficiency virus type 1)”, the “recognition” value in assay [1] is 3/8.

Take “ISKKAKGWF (Human immunodeficiency virus type 1)”: in assay [1], the “recognition” value is on record as 2/6.

For “LADQLIHLHY (Human immunodeficiency virus type 1)”, the “recognition” value in assay [1] is recorded as 2/5.

Take “REPHNEWTL (Human immunodeficiency virus type 1)”: the “recognition” value in assay [1] is 1/1.

Take “RIRTWKSLVK (Human immunodeficiency virus type 1)”: the “recognition” value in assay [1] is given as 3/15.

Take “THPRVSSEVHIPLG (Human immunodeficiency virus type 1) [vif-10]”: the “Magnitude of peptide-specific CD8+ T cell responses against Vif overlapping peptides, IFN-γ ELISPOT” value (“Magnitude … IFN-γ ELISPOT” for short) turned out to be 0 SFC/10^6 PMBC in assay [1] (individual 6003); 0 SFC/10^6 PMBC in assay [1] (individual 6007); 40 SFC/10^6 PMBC in assay [1] (individual 6009); 0 SFC/10^6 PMBC in assay [1] (individual AC-01); 0 SFC/10^6 PMBC in assay [1] (individual AC-04); 11800 SFC/10^6 PMBC in assay [1] (individual AC-06). Moreover, the “Magnitude … IFN-γ ELISPOT” value in assay [1] (individual AC-07), in assay [1] (individual AC-13), in assay [1] (individual AC-27), in assay [1] (individual AC-31), in assay [1] (individual AC-36) and in assay [1] (individual AC-42) was 0 SFC/10^6 PMBC throughout. Also, the “Magnitude … IFN-γ ELISPOT” value is on record as 0 SFC/10^6 PMBC in assay [1] (individual AC-43); 0 SFC/10^6 PMBC in assay [1] (individual AC-46); 840 SFC/10^6 PMBC in assay [1] (individual AC-59); 0 SFC/10^6 PMBC in assay [1] (individual AC-TZA); 0 SFC/10^6 PMBC in assay [1] (individual CMW); 0 SFC/10^6 PMBC in assay [1] (individual JMV). The “Magnitude … IFN-γ ELISPOT” value in assay [1] (individual JRH) and in assay [1] (individual TMH#4) was 0 SFC/10^6 PMBC throughout. In addition, the “magnitude of CTL response by Elispot” value in assay [1] (individual AC-06, text) is 1180 SFC/10^6 PBMC.

For “vif-3: overlapping peptide (12-18mer) spanning the HIV-1 SF2 B clade Vif sequence (RIRTWKSLVK; Human immunodeficiency virus type 1)”, the “Magnitude … IFN-γ ELISPOT” value in assay [1] (individual 6003) was 0 SFC/10^6 PMBC; in assay [1] (individual 6007), 0 SFC/10^6 PMBC; in assay [1] (individual 6009), 290 SFC/10^6 PMBC; in assay [1] (individual AC-01) it was 0 SFC/10^6 PMBC; in assay [1] (individual AC-04) it was 0 SFC/10^6 PMBC; in assay [1] (individual AC-06), 680 SFC/10^6 PMBC. Further, the “Magnitude … IFN-γ ELISPOT” value in assay [1] (individual AC-07), in assay [1] (individual AC-13), in assay [1] (individual AC-27), in assay [1] (individual AC-31), in assay [1] (individual AC-36) and in assay [1] (individual AC-42) was 0 SFC/10^6 PMBC each time. Moreover, the “Magnitude … IFN-γ ELISPOT” value in assay [1] (individual AC-43), in assay [1] (individual AC-46), in assay [1] (individual AC-59), in assay [1] (individual AC-TZA), in assay [1] (individual CMW) and in assay [1] (individual JMV) was 0 SFC/10^6 PMBC throughout. The “Magnitude … IFN-γ ELISPOT” value in assay [1] (individual JRH) is listed as 430 SFC/10^6 PMBC; in assay [1] (individual TMH#4), 0 SFC/10^6 PMBC.
